Converted amounts (≈) assume the structure as drawn. One block for each compound: values may come before it.
Key:
Experiment in all cases: ≥ marks a high value that may be exact or a test limit, other limits are often not marked, values filed in µg/mL are converted to µM
[1] = test system: Streptococcus agalactiae
[2] = test system: Staphylococcus aureus ATCC 25923
[3] = test system: Mycobacterium tuberculosis
[4] = test system: Mycobacterium tuberculosis H37Rv
[5] = test system: Candida glabrata
[6] = test system: Pseudomonas aeruginosa ATCC 9027
[7] = test system: Candida albicans
[8] = test system: Escherichia coli ATCC 25922
[9] = test system: Bacillus subtilis KCTC 1918
[10] = test system: Pseudomonas aeruginosa KCTC 1637
[11] = test system: Trichosporon beigelii KCTC 7707
[12] = test system: Staphylococcus epidermidis KCTC 3096
[13] = test system: Salmonella typhimurium KCTC 1926
[14] = test system: Candida albicans TIMM 1768
[15] = test system: Enterococcus faecalis V583
[16] = test system: Staphylococcus aureus USA 100

MIC [1]: 10 µM (≈ 23.6 µg/mL)
MIC [2]: 5 µM (≈ 11.8 µg/mL)
MIC [3]: 8.5 µM (≈ 20.1 µg/mL)
MIC [4]: 13.6 µM (≈ 32.1 µg/mL)
MIC [5]: 25 µM (≈ 59.1 µg/mL)
MIC [6]: 5 µM (≈ 11.8 µg/mL)
MIC [7]: 3.12 µM (≈ 7.38 µg/mL)
MIC [8]: 24 µM (≈ 56.7 µg/mL)
Compound: CC[C@H](C)[C@H](NC(=O)[C@H](CC(C)C)NC(=O)[C@H](CO)NC(=O)[C@@H]1CCCN1C(=O)[C@@H](NC(=O)[C@H](C)NC(=O)[C@H](CCCCN)NC(=O)[C@H](CCSC)NC(=O)[C@H](C)NC(=O)[C@H](CC(C)C)NC(=O)[C@H](CCCCN)NC(=O)CNC(=O)[C@H](CC(C)C)NC(=O)[C@H](Cc1ccccc1)NC(=O)CNC(=O)[C@H](Cc1c[nH]c2ccccc12)NC(=O)[C@@H](N)Cc1ccccc1)C(C)C)C(=O)NCC(=O)NCC(=O)N[C@@H](CC(N)=O)C(=O)N[C@@H](CCCCN)C(=O)N[C@@H](CCCCN)C(=O)O [FWGFLGKLAMKAVPSLIGGNKK]

MIC [9]: 6.25 µM (≈ 10.7 µg/mL)
MIC [10]: 3.12 µM (≈ 5.32 µg/mL)
MIC [11]: 8.84 µM (≈ 15.1 µg/mL)
MIC [12]: 6.25 µM (≈ 10.7 µg/mL)
MIC [13]: 1.56 µM (≈ 2.66 µg/mL)
MIC [14]: 12.5 µM (≈ 21.3 µg/mL)
Compound: CC[C@H](C)[C@H](NC(=O)CNC(=O)[C@@H](NC(=O)[C@H](CCCCN)NC(=O)[C@H](CCCCN)NC(=O)[C@H](Cc1ccccc1)NC(=O)[C@H](CC(C)C)NC(=O)[C@H](CCCCN)NC(=O)[C@H](Cc1c[nH]c2ccccc12)NC(=O)[C@@H](N)CCCCN)[C@@H](C)CC)C(=O)NCC(=O)N[C@@H](CCCCN)C(=O)N[C@@H](Cc1ccccc1)C(=O)N[C@@H](CC(C)C)C(N)=O [KWKLFKKIGIGKFL]

MIC [15]: ≥ 86.7 µM
Compound: CC(C)C[C@H](NC(=O)[C@H](CC(C)C)NC(=O)[C@@H](N)CC(C)C)C(=O)NCC(=O)N[C@@H](C)C(=O)N[C@@H](C)C(=O)N[C@H](C(=O)NCC(=O)O)[C@@H](C)O [LLLGAATG]

MIC [16]: ≥ 100 µM
Compound: NC(=O)[C@H](CCCN=C(N)N)NC(=O)[C@H](CO)NC(=O)[C@H](CCCN=C(N)N)NC(=O)[C@@H](N)CO [SRSR]

— DBAASP
